Experimental data as given in the supplement of paper PMC10307832.

How the values were obtained:
Assay in all cases: relative viability (nuclei count vs DMSO), 5 days (fraction); higher = more cells survive
IPA-3 + Alpelisib = compound: C1=CC=C2C(=C1)C=CC(=C2SSC3=C(C=CC4=CC=CC=C43)O)O [IPA-3] + Cc1nc(NC(=O)N2CCC[C@H]2C(N)=O)sc1-c1ccnc(C(C)(C)C(F)(F)F)c1 [Alpelisib] (partner 2 µM)
Procedure, shortened: (§1)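 After 5 days of treatment, lung cancer cells in 1536-well plates were fixed and stained in a single step (final 0.05% Triton X-100, 1% formaldehyde, 1 ug/ml Hoechst) and their nuclei counted on 4× images. Treatment had been applied by pin tool the day after seeding as one drug alone or as a fixed anchor-drug dose with five library-drug doses (not always all listed) in √10 steps. Relative viability is the nuclei count of treated wells divided by that of vehicle wells, and values are medians of duplicate plates.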

IPA-3 + Olaparib = compound: C1=CC=C2C(=C1)C=CC(=C2SSC3=C(C=CC4=CC=CC=C43)O)O [IPA-3] + O=C(c1cc(Cc2n[nH]c(=O)c3ccccc23)ccc1F)N1CCN(C(=O)C2CC2)CC1 [Olaparib] (partner 8 µM)
Procedure, shortened: as §1

Doramapimod + Trametinib = compound: Cc1ccc(-n2nc(C(C)(C)C)cc2NC(=O)Nc2ccc(OCCN3CCOCC3)c3ccccc23)cc1 [Doramapimod] + CC(=O)Nc1cccc(-n2c(=O)n(C3CC3)c(=O)c3c(Nc4ccc(I)cc4F)n(C)c(=O)c(C)c32)c1 [Trametinib] (partner 0.02 µM)
Procedure, shortened: as §1

Doramapimod + Lapatinib = compound: Cc1ccc(-n2nc(C(C)(C)C)cc2NC(=O)Nc2ccc(OCCN3CCOCC3)c3ccccc23)cc1 [Doramapimod] + CS(=O)(=O)CCNCc1ccc(-c2ccc3ncnc(Nc4ccc(OCc5cccc(F)c5)c(Cl)c4)c3c2)o1 [Lapatinib] (partner 2 µM)
Procedure, shortened: as §1

Cell Line	relative viability (IPA-3 + Alpelisib; first compound 0.2 µM)	relative viability (IPA-3 + Alpelisib; first compound 0.6325 µM)	relative viability (IPA-3 + Alpelisib; first compound 2 µM)	relative viability (IPA-3 + Alpelisib; first compound 6.325 µM)	relative viability (IPA-3 + Alpelisib; first compound 20 µM)	relative viability (IPA-3 + Olaparib; first compound 0.2 µM)	relative viability (IPA-3 + Olaparib; first compound 0.6325 µM)	relative viability (IPA-3 + Olaparib; first compound 2 µM)	relative viability (IPA-3 + Olaparib; first compound 6.325 µM)	relative viability (IPA-3 + Olaparib; first compound 20 µM)	relative viability (Doramapimod + Trametinib; first compound 0.02 µM)	relative viability (Doramapimod + Trametinib; first compound 0.06325 µM)	relative viability (Doramapimod + Trametinib; first compound 0.2 µM)	relative viability (Doramapimod + Trametinib; first compound 0.6325 µM)	relative viability (Doramapimod + Trametinib; first compound 2 µM)	relative viability (Doramapimod + Lapatinib; first compound 0.02 µM)	relative viability (Doramapimod + Lapatinib; first compound 0.06325 µM)	relative viability (Doramapimod + Lapatinib; first compound 0.2 µM)	relative viability (Doramapimod + Lapatinib; first compound 0.6325 µM)	relative viability (Doramapimod + Lapatinib; first compound 2 µM)
NCI-H1666	1.09	0.978	1	1.12	0.844	0.854	0.655	0.764	0.749	0.836	0.84	0.895	0.936	0.907	0.795	0.814	0.702	0.654	0.637	0.68
NCI-H1734	0.733	0.594	0.692	0.677	0.822	0.701	0.586	0.577	0.587	0.513	0.599	0.611	0.599	0.587	0.514	1.27	0.963	0.932	1.04	0.928
NCI-H1755	1.11	0.918	0.908	0.939	1.03	0.879	0.851	0.804	0.849	0.895	0.849	0.887	0.751	0.761	0.714	0.6	1.04	1.05	1.08	1.03
NCI-H1792	0.729	0.668	0.703	0.646	0.794	0.506	0.48		0.395	0.225	0.446	0.407	0.379	0.374	0.27	0.898	0.986	0.909	0.859	0.858
NCI-H1793	0.786	0.677	0.757	0.739	0.785	0.699	0.773	0.923	0.893	1.2	0.418	0.435	0.408	0.377	0.406	0.514	0.89	0.515	0.678	0.82
NCI-H1915	1.17	1.05	1.09	1.03	1.07	0.28	0.237	0.269	0.246	0.255	0.303	0.313	0.311	0.311	0.277	0.973	1.1	1.01	0.995	0.844
NCI-H1944	0.836	0.832	0.958	0.942	0.983	0.452	0.409	0.405	0.435	0.395	0.387	0.343	0.43	0.419	0.396	0.761	0.823	0.722	0.963	0.585
NCI-H1975	0.644	0.65	0.628	0.753	0.708	1.03	0.761	0.815	0.705	0.495	0.337	0.307	0.348	0.4	0.331	0.937	0.947	0.898	1.23	0.901
NCI-H1993	0.742	0.6	0.616	0.66	0.594	1.22	1.08	0.995	1.23	1.08	0.458	0.504	0.622	0.45	0.434	0.792	0.728	0.774	1.03	0.877
NCI-H2009	1.22	1.18	1.24	1.16	1.14	0.662	0.68	0.708	0.635	0.622	0.285	0.247	0.351	0.308	0.239	0.95	0.952	1.13	0.234	0.888
NCI-H2023	0.737	0.636	0.575	0.628	0.768	0.514	0.503	0.624	0.547	0.395	0.493	0.447	0.489	0.634	0.548	0.79	0.636	0.78	0.105	0.807
NCI-H2085	1.07	0.919	0.989	0.949	0.984	0.785	0.759	0.816	0.768	0.883	0.496	0.494	0.502	0.471	0.494	0.79	0.764	0.749	0.836	0.707
NCI-H2087	1.19	0.974	1.21	1.07	0.973	0.685	0.631	0.642	0.474	0.763	0.235	0.163	0.198	0.197	0.193	1.06	1.11	1.02	0.869	0.961
NCI-H2126	0.762	0.73	0.699	0.727	0.928	1.05	0.886	0.877	0.875	1.06	0.551	0.546	0.571	0.637	0.524	0.815	0.811	0.781	0.735	0.662
NCI-H2170	0.871	0.781	0.894	0.727	0.806	0.67	0.561	0.646	0.614	0.624	0.854	1.02	0.934	0.981	0.825	0.298	0.285	0.259	0.316	0.259
NCI-H2228	0.948	0.785	0.884	0.68	0.51	0.662	0.514	0.404	0.559	0.471	0.391	0.44	0.46	0.519	0.484	1.12	0.926	1.12	0.933	1.09
